# Data as given in patent US20240139220A1, “TREATMENT OF HPV INFECTION” (priority 2022, published 2024).
# What was measured:
# Assay type in all cases: physicochemical
# [1] = Hygroscicity by Dynamic Vapor Sorption (DVS) at 25° C.; settings: for D. (%) Cycle 1 (Desorption) / D. (%) Cycle 2 (Desorption) / S. (%) Cycle 1 (Sorption) / S. (%) Cycle 2 (Sorption) / XRPD after DVS test: 25° C.; for XRPD after DVS test: cycle 40-0-95-0-40% RH; for Water uptake: DVS 25° C.
# Protocol: Hygroscopicity was investigated by DVS at 25° C., using the following method: […]
# [2] = Bulk stability, accelerated storage for one week (HPLC, XRPD)
# Protocol: Bulk stability: Accelerated stability experiments were conducted at 25° C./92% RH and 40° C./75% RH in an open container, 60° C. in a tight container for one week.
# Samples were characterized by XRPD and HPLC and inspected for color change.
# Accelerated stability experiments were conducted at 25° C./92% RH in an open container, at 40° C./75% RH in an open container, and at 60° C. in a tight container for one week.
# [3] = Solubility in buffers, water and simulated vaginal fluid at 37° C.
# Protocol: About 4 mg of Compound I Pattern 1 was added into 2 mL of buffer solution.
# (§1) Solubility was tested in five media, pH 3.0 citrate buffer, pH 4.5 acetate buffer, pH 6.8 phosphate buffer, water, simulated vaginal fluid (pH 4.2) at 37° C. for 0.5 h and 2 h.
# The salt amount used is equivalent to 10 mg anhydrous free base. […] The obtained clear solutions were analyzed by pH meter for pH, and solubility was determined by observation.
# as §1
# [4] = 25° C., 84% RH, open container, 2 days
# [5] = 25° C., 92% RH, open container, one week
# [6] = 40° C., 75% RH, open container, one week
# [7] = 60° C., tight container, one week
# [8] = Simulated vaginal fluid (pH adjusted with 0.2N NaOH)
compound,measurement,setting,value
CCOC(=O)C(C)NP(=O)(COCCn1cnc2c(OC)nc(N)nc21)OCc1ccccc1.CCOC(=O)C(C)NP(=O)(COCCn1cnc2c(OC)nc(N)nc21)OCc1ccccc1.O=C(O)C=CC(=O)O (mixture of isomers) [Compound I Hemifumarate Pattern 1],D. (%) Cycle 1 (Desorption),[1]; 0% RH,0.13%
same,D. (%) Cycle 2 (Desorption),[1]; 0% RH,0.00%
same,S. (%) Cycle 1 (Sorption),[1]; 0% RH,0.13%
same,S. (%) Cycle 2 (Sorption),[1]; 0% RH,0.00%
same,D. (%) Cycle 1 (Desorption),[1]; 10% RH,0.36%
same,D. (%) Cycle 2 (Desorption),[1]; 10% RH,0.23%
same,S. (%) Cycle 1 (Sorption),[1]; 10% RH,0.34%
same,S. (%) Cycle 2 (Sorption),[1]; 10% RH,0.20%
same,D. (%) Cycle 1 (Desorption),[1]; 20% RH,0.56%
same,D. (%) Cycle 2 (Desorption),[1]; 20% RH,0.44%
same,S. (%) Cycle 1 (Sorption),[1]; 20% RH,0.53%
same,S. (%) Cycle 2 (Sorption),[1]; 20% RH,0.40%
same,D. (%) Cycle 1 (Desorption),[1]; 30% RH,0.79%
same,D. (%) Cycle 2 (Desorption),[1]; 30% RH,0.68%
same,S. (%) Cycle 1 (Sorption),[1]; 30% RH,0.73%
same,S. (%) Cycle 2 (Sorption),[1]; 30% RH,0.61%
same,D. (%) Cycle 1 (Desorption),[1]; 40% RH,1.04%
same,D. (%) Cycle 2 (Desorption),[1]; 40% RH,0.94%
same,S. (%) Cycle 1 (Sorption),[1]; 40% RH,0.96%
same,S. (%) Cycle 2 (Sorption),[1]; 40% RH,0.87%
same,D. (%) Cycle 2 (Desorption),[1]; 50% RH,1.26%
same,S. (%) Cycle 1 (Sorption),[1]; 50% RH,1.22%
same,D. (%) Cycle 2 (Desorption),[1]; 60% RH,1.68%
same,S. (%) Cycle 1 (Sorption),[1]; 60% RH,1.57%
same,D. (%) Cycle 2 (Desorption),[1]; 70% RH,2.25%
same,S. (%) Cycle 1 (Sorption),[1]; 70% RH,2.04%
same,D. (%) Cycle 2 (Desorption),[1]; 80% RH,3.14%
same,S. (%) Cycle 1 (Sorption),[1]; 80% RH,2.80%
same,D. (%) Cycle 2 (Desorption),[1]; 90% RH,4.84%
same,S. (%) Cycle 1 (Sorption),[1]; 90% RH,4.54%
same,D. (%) Cycle 2 (Desorption),[1]; 95% RH,6.87%
same,S. (%) Cycle 1 (Sorption),[1]; 95% RH,6.87%
same,XRPD after DVS test,[1],"No form change,"
same,Water uptake,[1]; up to 95% RH,~6.9%
same,XRPD,[2]; [4],No change
same,HPLC (chemical purity),[2]; [5],97.0%
same,XRPD,[2]; [5],No change
same,HPLC (chemical purity),[2]; [6],90.9%
same,XRPD,[2]; [6],No change
same,Degradation compared,[2]; 40° C./75% RH and 60° C. for one week,tends to degrade more than Compound I monofumarate Pattern 1
same,HPLC (chemical purity),[2]; [7],82.3%
same,XRPD,[2]; [7],No change
same,HPLC (chemical purity),[2]; Initial,97.8%
same,Solubility 0.5 hrs,[3]; [8],>2 mg/mL
same,Solubility 2 hrs,[3]; [8],>2 mg/mL
same,pH at 2 hrs,[3]; [8],(5.30)
same,Solubility 0.5 hrs,[3]; Water,>2 mg/mL
same,Solubility 2 hrs,[3]; Water,>2 mg/mL
same,pH at 2 hrs,[3]; Water,(3.38)
same,Solubility 0.5 hrs,[3]; pH 3.0 100 mM citrate buffer,>2 mg/mL
same,Solubility 2 hrs,[3]; pH 3.0 100 mM citrate buffer,>2 mg/mL
same,pH at 2 hrs,[3]; pH 3.0 100 mM citrate buffer,(3.07)
same,Solubility 0.5 hrs,[3]; pH 4.5 50 mM acetate buffer,>2 mg/mL
same,Solubility 2 hrs,[3]; pH 4.5 50 mM acetate buffer,>2 mg/mL
same,pH at 2 hrs,[3]; pH 4.5 50 mM acetate buffer,(4.45)
same,Solubility 0.5 hrs,[3]; pH 6.8 50 mM phosphate buffer,>2 mg/mL
same,Solubility 2 hrs,[3]; pH 6.8 50 mM phosphate buffer,>2 mg/mL
same,pH at 2 hrs,[3]; pH 6.8 50 mM phosphate buffer,(6.68)
CCOC(=O)C(C)NP(=O)(COCCn1cnc2c(OC)nc(N)nc21)OCc1ccccc1 (mixture of isomers) [Compound I free base Pattern 1],D. (%) Cycle 1 (Desorption),[1]; 0% RH,0.00%
same,D. (%) Cycle 2 (Desorption),[1]; 0% RH,0.19%
same,S. (%) Cycle 1 (Sorption),[1]; 0% RH,0.00%
same,S. (%) Cycle 2 (Sorption),[1]; 0% RH,0.19%
same,D. (%) Cycle 1 (Desorption),[1]; 10% RH,0.11%
same,D. (%) Cycle 2 (Desorption),[1]; 10% RH,0.37%
same,S. (%) Cycle 1 (Sorption),[1]; 10% RH,0.08%
same,S. (%) Cycle 2 (Sorption),[1]; 10% RH,0.22%
same,D. (%) Cycle 1 (Desorption),[1]; 20% RH,0.23%
same,D. (%) Cycle 2 (Desorption),[1]; 20% RH,0.57%
same,S. (%) Cycle 1 (Sorption),[1]; 20% RH,0.17%
same,S. (%) Cycle 2 (Sorption),[1]; 20% RH,0.30%
same,D. (%) Cycle 1 (Desorption),[1]; 30% RH,0.47%
same,D. (%) Cycle 2 (Desorption),[1]; 30% RH,0.83%
same,S. (%) Cycle 1 (Sorption),[1]; 30% RH,0.28%
same,S. (%) Cycle 2 (Sorption),[1]; 30% RH,0.44%
same,D. (%) Cycle 1 (Desorption),[1]; 40% RH,0.60%
same,D. (%) Cycle 2 (Desorption),[1]; 40% RH,1.09%
same,S. (%) Cycle 1 (Sorption),[1]; 40% RH,0.41%
same,S. (%) Cycle 2 (Sorption),[1]; 40% RH,0.62%
same,D. (%) Cycle 2 (Desorption),[1]; 50% RH,1.48%
same,S. (%) Cycle 1 (Sorption),[1]; 50% RH,0.61%
same,D. (%) Cycle 2 (Desorption),[1]; 60% RH,1.96%
same,S. (%) Cycle 1 (Sorption),[1]; 60% RH,0.85%
same,D. (%) Cycle 2 (Desorption),[1]; 70% RH,2.78%
same,S. (%) Cycle 1 (Sorption),[1]; 70% RH,1.14%
same,D. (%) Cycle 2 (Desorption),[1]; 80% RH,4.33%
same,S. (%) Cycle 1 (Sorption),[1]; 80% RH,1.64%
same,D. (%) Cycle 2 (Desorption),[1]; 90% RH,9.10%
same,S. (%) Cycle 1 (Sorption),[1]; 90% RH,4.27%
same,D. (%) Cycle 2 (Desorption),[1]; 95% RH,14.32%
same,S. (%) Cycle 1 (Sorption),[1]; 95% RH,14.32%
same,XRPD after DVS test,[1],"No form change,"
same,Water uptake,[1]; up to 90% RH,about 4.3%
same,Water uptake,[1]; up to 95% RH,about 14.3%
same,XRPD,[2]; [4],No change
same,HPLC (chemical purity),[2]; [5],98.5%
same,XRPD,[2]; [5],No change
same,HPLC (chemical purity),[2]; [6],95.2%
same,XRPD,[2]; [6],No change
same,HPLC (chemical purity),[2]; [7],98.5%
same,XRPD,[2]; [7],No change
same,HPLC (chemical purity),[2]; Initial,98.7%
same,Solubility 0.5 hrs,[3]; [8],>2 mg/mL
same,Solubility 2 hrs,[3]; [8],>2 mg/mL
same,pH at 2 hrs,[3]; [8],(5.53)
same,Solubility 0.5 hrs,[3]; Water,>2 mg/mL
same,Solubility 2 hrs,[3]; Water,>2 mg/mL
same,pH at 2 hrs,[3]; Water,(7.55)
same,Solubility 0.5 hrs,[3]; pH 3.0 100 mM citrate buffer,>2 mg/mL
same,Solubility 2 hrs,[3]; pH 3.0 100 mM citrate buffer,>2 mg/mL
same,pH at 2 hrs,[3]; pH 3.0 100 mM citrate buffer,(2.98)
same,Solubility 0.5 hrs,[3]; pH 4.5 50 mM acetate buffer,>2 mg/mL
same,Solubility 2 hrs,[3]; pH 4.5 50 mM acetate buffer,>2 mg/mL
same,pH at 2 hrs,[3]; pH 4.5 50 mM acetate buffer,(4.50)
same,Solubility 0.5 hrs,[3]; pH 6.8 50 mM phosphate buffer,>2 mg/mL
same,Solubility 2 hrs,[3]; pH 6.8 50 mM phosphate buffer,>2 mg/mL
same,pH at 2 hrs,[3]; pH 6.8 50 mM phosphate buffer,(6.81)
